Laboratory results: publication PMC9694777, “Fractionation and Extraction Optimization of Potentially Valuable Compounds and Their Profiling in Six Varieties of Two Nicotiana Species” (Molecules, 2022)
Converted amounts (≈) assume the structure as drawn. Each block holds one compound with its values, some of them ahead of it.

Assay: physchem
From the text: Determination of the small molecule content in a complex plant matrix depends on the understanding of minimum solubility in the chosen extraction solvent. […] Often, tests on mixture are hardly reproducible on pure compounds if this aspect is not routinely considered in the workflow. We performed a general testing of best solvent systems to compare a wide range of small molecules of interest to understand the limitations of general approaches within a complex plant matrix such as Nicotiana.
For each of the 29 reference compounds, 2 mg was weighed into a 15 mL glass tube and dissolved in the minimum amount of the test solvent by gradually adding the solvent with a micropipette until complete dissolution or to a final volume of 10.0 mL. Seven solvents with polarities from nonpolar to polar were chosen for the test: hexane (C6H14), CH2Cl2, CH2Cl2/MeOH (4:1, v/v), EtOH, MeOH, MeOH/H2O (7:3, v/v), and H2O. The consumed solvents and their volumes were recorded for each reference compound.

[1] = 22 °C, organic solvent or mixture, thermodynamic from solid, Solubility in C6H14
[2] = 22 °C, organic solvent or mixture, thermodynamic from solid, Solubility in C6H14, solvent hexane (C6H14); room temperature (21–23 °C); 2 mg compound, solvent added until dissolution or 10.0 mL
[3] = 22 °C, organic solvent or mixture, thermodynamic from solid, Solubility in CH2Cl2, solvent dichloromethane (CH2Cl2); room temperature (21–23 °C)
[4] = 22 °C, organic solvent or mixture, thermodynamic from solid, Solubility in CH2Cl2/MeOH (4:1), solvent CH2Cl2/MeOH (4:1, v/v); room temperature (21–23 °C)
[5] = 22 °C, organic solvent or mixture, thermodynamic from solid, Solubility in EtOH, solvent ethanol; room temperature (21–23 °C)
[6] = 22 °C, organic solvent or mixture, thermodynamic from solid, Solubility in MeOH, solvent methanol; room temperature (21–23 °C)
[7] = 22 °C, organic solvent or mixture, thermodynamic from solid, Solubility in MeOH/H2O (7:3), solvent MeOH/H2O (7:3, v/v); room temperature (21–23 °C)
[8] = 22 °C, water, thermodynamic from solid, Solubility in H2O, solvent water; room temperature (21–23 °C)
[9] = solvent MeOH/H2O (7:3, v/v); room temperature (21–23 °C)
[10] = solvent ethanol; room temperature (21–23 °C)
[11] = solvent methanol; room temperature (21–23 °C)
[12] = solvent water; room temperature (21–23 °C)
[13] = CH2Cl2/MeOH (4:1, v/v), 22 °C, organic solvent or mixture, thermodynamic from solid, Solubility in CH2Cl2/MeOH (4:1), solvent CH2Cl2/MeOH (4:1, v/v); room temperature (21–23 °C)
[14] = MeOH/H2O (7:3, v/v), 22 °C, organic solvent or mixture, thermodynamic from solid, Solubility in MeOH/H2O (7:3), solvent MeOH/H2O (7:3, v/v); room temperature (21–23 °C)
[15] = dichloromethane (CH2Cl2), 22 °C, organic solvent or mixture, thermodynamic from solid, Solubility in CH2Cl2, solvent dichloromethane (CH2Cl2); room temperature (21–23 °C)
[16] = ethanol, 22 °C, organic solvent or mixture, thermodynamic from solid, Solubility in EtOH, solvent ethanol; room temperature (21–23 °C)
[17] = methanol, 22 °C, organic solvent or mixture, thermodynamic from solid, Solubility in MeOH, solvent methanol; room temperature (21–23 °C)
[18] = water, 22 °C, thermodynamic from solid, Solubility in H2O, solvent water; room temperature (21–23 °C)
[19] = hexane (C6H14), 22 °C, organic solvent or mixture, thermodynamic from solid, Solubility in C6H14, solvent hexane (C6H14); room temperature (21–23 °C); 2 mg compound, solvent added until dissolution or 10.0 mL
[20] = solvent CH2Cl2/MeOH (4:1, v/v); room temperature (21–23 °C)

Compound: c1cncc([C@@H]2CCCCN2)c1 [Anabasine]
Solubility in CH2Cl2/MeOH (4:1): 70.0 mg/mL (≈ 431 mM)
solubility [1]: < 0.19 mg/mL
solubility (22 °C, organic solvent or mixture, thermodynamic from solid, Solubility in CH2Cl2): 10.3 mg/mL (≈ 63.5 mM)
solubility (22 °C, organic solvent or mixture, thermodynamic from solid, Solubility in CH2Cl2/MeOH (4:1)): < 100 mg/mL
solubility (22 °C, organic solvent or mixture, thermodynamic from solid, Solubility in EtOH): 97 mg/mL (≈ 598 mM)
solubility (22 °C, organic solvent or mixture, thermodynamic from solid, Solubility in MeOH): 103 mg/mL (≈ 635 mM)
solubility (22 °C, organic solvent or mixture, thermodynamic from solid, Solubility in MeOH/H2O (7:3)): 109 mg/mL (≈ 672 mM)
solubility (22 °C, water, thermodynamic from solid, Solubility in H2O): < 0.19 mg/mL

Compound: C1=CCC(c2cccnc2)NC1 (centres unmarked) [Anatabine]
solubility [2]: 217 mg/mL (≈ 1350 mM)
solubility [3]: 442 mg/mL (≈ 2760 mM)
solubility [4]: 512 mg/mL (≈ 3200 mM)
solubility [5]: 490 mg/mL (≈ 3060 mM)
solubility [6]: 444 mg/mL (≈ 2770 mM)
solubility [7]: 193 mg/mL (≈ 1200 mM)
solubility [8]: 100 mg/mL (≈ 624 mM)

Compound: C=C1CC/C=C(/C)CC[C@@H]2[C@@H]1CC2(C)C [Caryophyllene]
Solubility in MeOH/H2O (7:3) [9]: NS (not soluble, insoluble in the solvent at the tested concentration range (0.19–558 mg/mL))
Solubility in EtOH [10]: 196 mg/mL (≈ 959 mM)
Solubility in MeOH [11]: 36.2 mg/mL (≈ 177 mM)
Solubility in H2O [12]: NS (not soluble, insoluble in the solvent at the tested concentration range (0.19–558 mg/mL))

solubility [1]: < 0.19 mg/mL
solubility [13]: 208 mg/mL (≈ 1180 mM)
solubility [14]: 139 mg/mL (≈ 789 mM)
solubility [15]: 203 mg/mL (≈ 1150 mM)
solubility [16]: 190 mg/mL (≈ 1080 mM)
solubility [17]: 235 mg/mL (≈ 1330 mM)
solubility [18]: 145 mg/mL (≈ 823 mM)
Compound: CN1C(=O)CC[C@H]1c1cccnc1 [Cotinine]

solubility [13]: 348 mg/mL (≈ 1560 mM)
solubility [14]: 0.75 mg/mL (≈ 3.37 mM)
solubility [15]: 382 mg/mL (≈ 1720 mM)
solubility [16]: 376 mg/mL (≈ 1690 mM)
solubility [19]: 400 mg/mL (≈ 1800 mM)
solubility [17]: 466 mg/mL (≈ 2100 mM)
solubility [18]: < 0.19 mg/mL
Compound: CC(C)=CCC/C(C)=C/CC/C(C)=C/CO [Farnesol]

solubility [13]: 462 mg/mL (≈ 3000 mM)
solubility [14]: 77.3 mg/mL (≈ 501 mM)
solubility [15]: 440 mg/mL (≈ 2850 mM)
solubility [16]: 454 mg/mL (≈ 2940 mM)
solubility [19]: 422 mg/mL (≈ 2740 mM)
solubility [17]: 462 mg/mL (≈ 3000 mM)
solubility [18]: 0.57 mg/mL (≈ 3.7 mM)
Compound: C=CC(C)(O)CCC=C(C)C (centres unmarked) [Linalool]

Compound: CCCCC/C=C\C/C=C\CCCCCCCC(=O)O [Linoleic acid]
solubility [2]: 374 mg/mL (≈ 1330 mM)
solubility [3]: 504 mg/mL (≈ 1800 mM)
solubility [4]: 502 mg/mL (≈ 1790 mM)
solubility [5]: 558 mg/mL (≈ 1990 mM)
solubility [6]: 526 mg/mL (≈ 1880 mM)
solubility [7]: < 0.19 mg/mL
solubility [8]: < 0.19 mg/mL

Compound: CC1=C[C@H](O)CC(C)(C)[C@H]1/C=C/C(C)=C/C=C/C(C)=C/C=C/C=C(C)/C=C/C=C(C)/C=C/C1=C(C)C[C@@H](O)CC1(C)C [Lutein]
solubility [2]: < 0.19 mg/mL
solubility [3]: < 0.19 mg/mL
solubility [5]: < 0.19 mg/mL
solubility [6]: < 0.19 mg/mL
solubility [7]: < 0.19 mg/mL
solubility [8]: < 0.19 mg/mL
Solubility in CH2Cl2/MeOH (4:1) [20]: 4.66 mg/mL (≈ 8.19 mM)
Solubility in CH2Cl2/MeOH (4:1) (solvent CH2Cl2/MeOH (4:1, v/v); room temperature (21–23 °C); listed as lutein): < 100 mg/mL

Compound: c1cncc(C2=NCCC2)c1 [Myosmine]
solubility [2]: 4.27 mg/mL (≈ 29.2 mM)
solubility [3]: 194 mg/mL (≈ 1330 mM)
solubility [4]: 175 mg/mL (≈ 1200 mM)
solubility [5]: 418 mg/mL (≈ 2860 mM)
solubility [6]: 356 mg/mL (≈ 2440 mM)
solubility [7]: 231 mg/mL (≈ 1580 mM)
solubility [8]: 180 mg/mL (≈ 1230 mM)

Compound: C=CC(=C)CCCC(C)CCCC(C)CCCC(C)C (centres unmarked) [Neophytadiene]
Solubility in MeOH/H2O (7:3) [9]: NS (not soluble, insoluble in the solvent at the tested concentration range (0.19–558 mg/mL))
Solubility in EtOH [10]: 57.5 mg/mL (≈ 206 mM)
Solubility in MeOH [11]: 4.08 mg/mL (≈ 14.6 mM)
Solubility in H2O [12]: NS (not soluble, insoluble in the solvent at the tested concentration range (0.19–558 mg/mL))

Compound: NC(=O)c1cccnc1 [Nicotinamide]
solubility [3]: < 0.19 mg/mL
solubility [5]: 20.8 mg/mL (≈ 170 mM)
solubility [7]: 114 mg/mL (≈ 933 mM)
solubility [19]: < 0.19 mg/mL
solubility [17]: 66.3 mg/mL (≈ 543 mM)
Solubility in CH2Cl2/MeOH (4:1) [20]: 37.3 mg/mL (≈ 305 mM)
Solubility in CH2Cl2/MeOH (4:1) (solvent CH2Cl2/MeOH (4:1, v/v); room temperature (21–23 °C); listed as nicotinamide): < 100 mg/mL
solubility [18]: 150 mg/mL (≈ 1230 mM)
